The supplement of paper PMC10307832

Key:
Assay in all cases: relative viability (nuclei count vs DMSO), 5 days (fraction); higher = more cells survive
[1] = compound: C=CCn1c(=O)c2cnc(Nc3ccc(N4CCN(C)CC4)cc3)nc2n1-c1cccc(C(C)(C)O)n1 [Adavosertib] + CC(C)C[C@H](NC(=O)[C@H](Cc1ccccc1)NC(=O)c1cnccn1)B(O)O [Bortezomib] (partner 0.002 µM)
Outline: (§1)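 Lung cancer cell lines in 1536-well plates were dosed by pin tool the day after seeding, either with one drug alone or with a fixed anchor-drug dose plus five library-drug doses (not always all listed) in √10 steps. After 5 days, cells were fixed and their nuclei stained in one step (final 0.05% Triton X-100, 1% formaldehyde, 1 ug/ml Hoechst), then counted on 4× images. Relative viability is the nuclei count in treated wells divided by that in vehicle wells. Values are medians of duplicate plates.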

[2] = compound: COc1nc(N)nc2c1ncn2[C@@H]1O[C@H](CO)[C@@H](O)[C@@H]1O [Nelarabine] + Cc1nc(Nc2ncc(C(=O)Nc3c(C)cccc3Cl)s2)cc(N2CCN(CCO)CC2)n1 [Dasatinib] (partner 0.075 µM)
Outline: as §1

[3] = compound: C=CCn1c(=O)c2cnc(Nc3ccc(N4CCN(C)CC4)cc3)nc2n1-c1cccc(C(C)(C)O)n1 [Adavosertib] + C[C@]1(O)C[C@@H](c2nc(-c3ccc4ccc(-c5ccccc5)nc4c3)c3c(N)nccn32)C1 [Linsitinib] (partner 1 µM)
Outline: as §1

[4] = compound: COc1nc(N)nc2c1ncn2[C@@H]1O[C@H](CO)[C@@H](O)[C@@H]1O [Nelarabine] + CC(=O)c1c(C)c2cnc(Nc3ccc(N4CCNCC4)cn3)nc2n(C2CCCC2)c1=O [Palbociclib] (partner 0.5 µM)
Outline: as §1

## NCI-H1993
[1]; first compound 0.01 µM
  relative viability: 0.94
[1]; first compound 0.03162 µM
  relative viability: 0.962
[1]; first compound 0.1 µM
  relative viability: 1.09
[1]; first compound 0.3162 µM
  relative viability: 1.11
[2]; first compound 0.01 µM
  relative viability: 0.692
[2]; first compound 0.03162 µM
  relative viability: 0.505
[2]; first compound 0.1 µM
  relative viability: 0.553
[2]; first compound 0.3162 µM
  relative viability: 0.665
[2]; first compound 1 µM
  relative viability: 0.635
[3]; first compound 0.01 µM
  relative viability: 0.769
[3]; first compound 0.03162 µM
  relative viability: 0.793
[3]; first compound 0.1 µM
  relative viability: 0.797
[3]; first compound 0.3162 µM
  relative viability: 0.749
[4]; first compound 0.01 µM
  relative viability: 0.721
[4]; first compound 0.03162 µM
  relative viability: 0.516
[4]; first compound 0.1 µM
  relative viability: 0.692
[4]; first compound 0.3162 µM
  relative viability: 0.547
[4]; first compound 1 µM
  relative viability: 0.647

## NCI-H1792
[1]; first compound 0.01 µM
  relative viability: 0.974
[1]; first compound 0.03162 µM
  relative viability: 0.918
[1]; first compound 0.1 µM
  relative viability: 0.972
[1]; first compound 0.3162 µM
  relative viability: 0.968
[2]; first compound 0.03162 µM
  relative viability: 0.876
[2]; first compound 0.1 µM
  relative viability: 0.627
[2]; first compound 0.3162 µM
  relative viability: 0.95
[2]; first compound 1 µM
  relative viability: 0.846
[3]; first compound 0.01 µM
  relative viability: 0.601
[3]; first compound 0.03162 µM
  relative viability: 0.519
[3]; first compound 0.1 µM
  relative viability: 0.493
[3]; first compound 0.3162 µM
  relative viability: 0.559
[4]; first compound 0.03162 µM
  relative viability: 0.58
[4]; first compound 0.1 µM
  relative viability: 0.904
[4]; first compound 0.3162 µM
  relative viability: 0.78
[4]; first compound 1 µM
  relative viability: 0.922

## PC-14
[1]; first compound 0.01 µM
  relative viability: 1.05
[1]; first compound 0.03162 µM
  relative viability: 0.873
[1]; first compound 0.1 µM
  relative viability: 0.926
[1]; first compound 0.3162 µM
  relative viability: 0.334
[2]; first compound 0.01 µM
  relative viability: 0.253
[2]; first compound 0.03162 µM
  relative viability: 0.233
[2]; first compound 0.1 µM
  relative viability: 0.131
[2]; first compound 0.3162 µM
  relative viability: 0.304
[2]; first compound 1 µM
  relative viability: 0.315
[3]; first compound 0.01 µM
  relative viability: 0.915
[3]; first compound 0.03162 µM
  relative viability: 0.957
[3]; first compound 0.1 µM
  relative viability: 0.942
[3]; first compound 0.3162 µM
  relative viability: 0.575
[4]; first compound 0.01 µM
  relative viability: 0.705
[4]; first compound 0.03162 µM
  relative viability: 0.53
[4]; first compound 0.1 µM
  relative viability: 0.582
[4]; first compound 0.3162 µM
  relative viability: 0.601
[4]; first compound 1 µM
  relative viability: 0.706

## NCI-H520
[1]; first compound 0.01 µM
  relative viability: 0.708
[1]; first compound 0.03162 µM
  relative viability: 0.803
[1]; first compound 0.1 µM
  relative viability: 0.553
[1]; first compound 0.3162 µM
  relative viability: 0.535
[2]; first compound 0.01 µM
  relative viability: 0.245
[2]; first compound 0.03162 µM
  relative viability: 0.22
[2]; first compound 0.1 µM
  relative viability: 0.2
[2]; first compound 0.3162 µM
  relative viability: 0.214
[2]; first compound 1 µM
  relative viability: 0.207
[3]; first compound 0.01 µM
  relative viability: 0.883
[3]; first compound 0.03162 µM
  relative viability: 0.794
[3]; first compound 0.1 µM
  relative viability: 1.11
[3]; first compound 0.3162 µM
  relative viability: 0.874
[4]; first compound 0.01 µM
  relative viability: 0.215
[4]; first compound 0.03162 µM
  relative viability: 0.186
[4]; first compound 0.1 µM
  relative viability: 0.236
[4]; first compound 0.3162 µM
  relative viability: 0.261
[4]; first compound 1 µM
  relative viability: 0.168

## NCI-H23
[1]; first compound 0.01 µM
  relative viability: 0.97
[1]; first compound 0.03162 µM
  relative viability: 1.05
[1]; first compound 0.1 µM
  relative viability: 0.844
[1]; first compound 0.3162 µM
  relative viability: 0.327
[2]; first compound 0.01 µM
  relative viability: 1.01
[2]; first compound 0.03162 µM
  relative viability: 0.838
[2]; first compound 0.1 µM
  relative viability: 0.588
[2]; first compound 0.3162 µM
  relative viability: 0.927
[2]; first compound 1 µM
  relative viability: 0.819
[3]; first compound 0.01 µM
  relative viability: 0.53
[3]; first compound 0.03162 µM
  relative viability: 0.612
[3]; first compound 0.1 µM
  relative viability: 0.444
[3]; first compound 0.3162 µM
  relative viability: 0.29
[4]; first compound 0.01 µM
  relative viability: 0.54
[4]; first compound 0.03162 µM
  relative viability: 0.51
[4]; first compound 0.1 µM
  relative viability: 0.43
[4]; first compound 0.3162 µM
  relative viability: 0.503
[4]; first compound 1 µM
  relative viability: 0.634

## NCI-H322M
[1]; first compound 0.03162 µM
  relative viability: 1.17
[1]; first compound 0.1 µM
  relative viability: 1.2
[1]; first compound 0.3162 µM
  relative viability: 0.869
[2]; first compound 0.01 µM
  relative viability: 0.268
[2]; first compound 0.03162 µM
  relative viability: 0.252
[2]; first compound 0.1 µM
  relative viability: 0.231
[2]; first compound 0.3162 µM
  relative viability: 0.273
[2]; first compound 1 µM
  relative viability: 0.246
[3]; first compound 0.03162 µM
  relative viability: 0.789
[3]; first compound 0.1 µM
  relative viability: 0.982
[3]; first compound 0.3162 µM
  relative viability: 0.535
[4]; first compound 0.01 µM
  relative viability: 0.382
[4]; first compound 0.03162 µM
  relative viability: 0.499
[4]; first compound 0.1 µM
  relative viability: 0.475
[4]; first compound 0.3162 µM
  relative viability: 0.473
[4]; first compound 1 µM
  relative viability: 0.495

## LC-2-ad
[1]; first compound 0.01 µM
  relative viability: 1.11
[1]; first compound 0.03162 µM
  relative viability: 1.08
[1]; first compound 0.1 µM
  relative viability: 1.09
[1]; first compound 0.3162 µM
  relative viability: 1.16
[2]; first compound 0.01 µM
  relative viability: 0.556
[2]; first compound 0.03162 µM
  relative viability: 0.647
[2]; first compound 0.1 µM
  relative viability: 0.463
[2]; first compound 0.3162 µM
  relative viability: 0.529
[2]; first compound 1 µM
  relative viability: 0.611
[3]; first compound 0.01 µM
  relative viability: 0.773
[3]; first compound 0.03162 µM
  relative viability: 0.883
[3]; first compound 0.1 µM
  relative viability: 0.781
[3]; first compound 0.3162 µM
  relative viability: 0.729
[4]; first compound 0.01 µM
  relative viability: 0.525
[4]; first compound 0.03162 µM
  relative viability: 0.495
[4]; first compound 0.1 µM
  relative viability: 0.475
[4]; first compound 0.3162 µM
  relative viability: 0.544
[4]; first compound 1 µM
  relative viability: 0.522

## LOU-NH91
[1]; first compound 0.01 µM
  relative viability: 0.484
[1]; first compound 0.03162 µM
  relative viability: 0.502
[1]; first compound 0.1 µM
  relative viability: 0.502
[1]; first compound 0.3162 µM
  relative viability: 0.489
[2]; first compound 0.01 µM
  relative viability: 0.628
[2]; first compound 0.03162 µM
  relative viability: 0.591
[2]; first compound 0.1 µM
  relative viability: 0.436
[2]; first compound 0.3162 µM
  relative viability: 0.585
[2]; first compound 1 µM
  relative viability: 0.605
[3]; first compound 0.01 µM
  relative viability: 1
[3]; first compound 0.03162 µM
  relative viability: 0.938
[3]; first compound 0.1 µM
  relative viability: 0.964
[3]; first compound 0.3162 µM
  relative viability: 0.871
[4]; first compound 0.01 µM
  relative viability: 0.576
[4]; first compound 0.03162 µM
  relative viability: 0.47
[4]; first compound 0.1 µM
  relative viability: 0.524
[4]; first compound 0.3162 µM
  relative viability: 0.618
[4]; first compound 1 µM
  relative viability: 0.578

## CAL-12T
[1]; first compound 0.03162 µM
  relative viability: 0.817
[1]; first compound 0.1 µM
  relative viability: 0.946
[1]; first compound 0.3162 µM
  relative viability: 0.68
[2]; first compound 0.01 µM
  relative viability: 0.426
[2]; first compound 0.03162 µM
  relative viability: 0.484
[2]; first compound 0.1 µM
  relative viability: 0.16
[2]; first compound 0.3162 µM
  relative viability: 0.51
[2]; first compound 1 µM
  relative viability: 0.482
[3]; first compound 0.01 µM
  relative viability: 0.822
[3]; first compound 0.03162 µM
  relative viability: 0.818
[3]; first compound 0.1 µM
  relative viability: 0.939
[3]; first compound 0.3162 µM
  relative viability: 0.944
[4]; first compound 0.01 µM
  relative viability: 0.474
[4]; first compound 0.03162 µM
  relative viability: 0.489
[4]; first compound 0.1 µM
  relative viability: 0.551
[4]; first compound 0.3162 µM
  relative viability: 0.412
[4]; first compound 1 µM
  relative viability: 0.515
